The OPERA property sets (Mansouri et al. 2018)

logP | SMILES
2.8 | COc1ccccc1N1CCN(CCNC(=O)C2CCCCC2)CC1
1.5 | COc1ccccc1N1CCN(CCNC(=O)c2ccncn2)CC1
4.7 | COc1ccccc1N1CCN(CCC=Cc2ccc(F)cc2)CC1
2.2 | COc1ccccc1N1CCN(CCNC(=O)c2ccccc2)CC1
3.6 | COc1ccccc1N1CCN(CCOCc2ccc(F)cc2)CC1
2 | COc1ccccc1N1CCN(CCNC(=O)c2cccs2)CC1
1.6 | COc1ccccc1N1CCN(CCNC(=O)c2ccc[nH]2)CC1
3.6 | COc1ccccc1N1CCN(CCCC(=O)c2ccc(F)cc2)CC1
3.4 | COc1ccccc1N1CCN(CCNC(=N)C2CCCCC2)CC1
2.5 | COc1ccccc1N1CCN(CCNC(=O)c2ccc(F)cc2)CC1
4.1 | COc1ccccc1N1CCN(CCCOc2ccc(F)cc2)CC1
3.4 | COc1ccccc1N1CCN(CCCC(O)c2ccc(F)cc2)CC1 (configuration not stated)
3.7 | COc1ccccc1N1CCN(CCNC(=S)C2CCCCC2)CC1
1.2 | COc1ccccc1N1CCN(CCNC(=O)c2cccnc2)CC1
4.8 | COc1ccccc1N1CCN(CCCCc2ccc(F)cc2)CC1
1.6 | COc1ccccc1N1CCN(CCNC(=O)c2ccco2)CC1
0.5 | COc1ccccc1N1CCN(CCNC(C)=O)CC1
